# From article PMC9558510 (Cancers, 2022)
# Assays:
# [1] = Logistic regression of dose reduction/discontinuation vs predicted exposure; type: in vivo, human; settings: logistic regression, standard dosing assumed
# Procedure: (§1) Data were collected and processed using Microsoft Excel 2016 Version 16.0 (Microsoft Corporation, Redmond, WA, USA). Statistical calculations and visualization of results were performed with R Studio Version 1.2.5042 (RStudio Incorporation, Boston, MA, USA) running R version 4.0.5 (R Foundation for Statistical Computing, Vienna, Austria, 2020). For further analysis, serum concentrations were divided into groups according to time interval post-dose as follows: 0–5 h, 5–10 h, 10–14 h, and >14 h for (hydroxy-)dabrafenib and 0–10 h, 10–20 h, 20–30 h, and >30 h for trametinib. Concentrations < LLOQ were excluded from further statistical analyses. The concentrations of the same patient at the same dosage and within the same post-dose group were summarized into an individual mean serum concentration for descriptive statistical analysis to account for potential bias caused by the unbalanced number of samples per patient. […] The Wilcoxon […] test was used for unpaired samples. The correlations between individual PK parameters sampled from the conditional distribution during the generation of EBE (methods for estimation see below) and age, sex, body mass index (BMI), and co-medication were analyzed using analysis of variance (ANOVA) and Spearman’s correlation coefficient. Logistic regression was used to compare the risk of treatment discontinuations or dose reductions (dabrafenib dose reduction or discontinuation, trametinib dose reduction or discontinuation, or any dose reduction or discontinuation) with the corresponding predicted trough concentrations and area under the curve of a dosing interval (AUCτ) of dabrafenib, hydroxy-dabrafenib, and trametinib as well as with the composite predicted dabrafenib/hydroxy-dabrafenib trough concentration and with composite dabrafenib/hydroxy-dabrafenib AUCτ assuming standard dosing. The Hosmer–Lemeshow test was used to evaluate the goodness of fit for our logistic regression model. Due to the explorative nature of the study, p-values obtained from multiple comparisons were not corrected for multiple testing. A p-value < 0.05 was considered statistically significant.
# [2] = Empirical Bayesian estimates of serum AUCτ and Cmin from serum samples with existing popPK models; settings: steady state, 150 mg q12h dabrafenib
# Procedure: For each compound, a popPK model developed by Balakirouchenane et al. was assessed regarding its suitability to create EBE using Monolix 2021R1 (Lixoft SAS, Antony, Fance). […] The predictive performance of the models was estimated by calculating the prediction error (PE), mean prediction error (MPE), mean absolute prediction error (MAPE), and mean relative deviation (MRD):(1) PEi[%]=Cpredicted,i−Cobserved,i/Cobserved,i·100 (2) MPE[%]=1/n∑i=1nPEi (3) MAPE[%]=1/n∑i=1n|PEi| (4) MRD=10^x;x=1/n∑i=1n(log10[Cpredicted,i]−log10[Cobserved,i])^2
# Estimates for AUCτ were generated for every occasion for the standard doses (150 mg q12h for dabrafenib, 2 mg q24h for trametinib). In addition, the individual predicted Cmin at a steady state was generated since not all patients contributed trough samples. The same estimates were used in the logistic regression model.
# [3] = Observed steady-state serum concentrations (LC-MS/MS) in melanoma patients; type: in vivo, human
# Procedure: Serum samples were collected regularly during each routine outpatient visit from study enrollment until January 2022 or until treatment discontinuation. If possible, blood sampling was performed before the next drug administration, but any time interval between the last administration and blood withdrawal was accepted. The steady-state was assumed after continuous dosing for fourteen days for both compounds.
# Hydroxy-dabrafenib concentrations were analyzed using a different previously published LC-MS/MS method with an LLOQ of 10 ng/mL [37]. […] Hydroxy-dabrafenib was not quantified in capillary blood samples as the methodology was not available at the time of analysis. All the methods have been validated according to the guidelines of the U.S. Food and Drug Administration and/or the European Medicines Agency.
# as §1
# [4] = serum, dabrafenib dose of 150 mg q12h
# [5] = standard dose, BMI (kg/m2) < 30
# [6] = standard dose, BMI (kg/m2) >= 30
# [7] = standard dose, P-gp inducer: no
# [8] = standard dose, P-gp inducer: yes
# [9] = standard dose, P-gp inhibitor: no
# [10] = standard dose, P-gp inhibitor: yes
# [11] = standard dose, age above 65: no
# [12] = standard dose, age above 65: yes
# [13] = standard dose, moderate CYP2C8 inhibitor: no
# [14] = standard dose, moderate CYP2C8 inhibitor: yes
structure (smiles),measurement,setting,value
CC(C)(CO)c1nc(-c2cccc(NS(=O)(=O)c3c(F)cccc3F)c2F)c(-c2ccnc(N)n2)s1 [hydroxy-dabrafenib],relationship between dose reduction or discontinuation due to AE and predicted serum trough concentrations or AUCτ,[1],no significant relationships
same,median of the average predicted trough concentrations,[2],84.5 ng/mL
same,median of the average predicted AUCτ,[2]; average over all observations per patient,6040 ng·h/mL
same,median of individual mean trough concentration,[3]; [4],76.0 ng/mL
same,range of individual mean trough concentration,[3]; [4],37.2 to 171.0 ng/mL
same,effect of co-medication with at least one P-gp inducer on individual mean trough concentrations,"[3]; serum, standard dose",no effect
same,serum Cmin mean,[3]; [5],73.6 ng/mL
same,serum Cmin median,[3]; [5],72.9 ng/mL
same,serum Cmin mean,[3]; [6],97.6 ng/mL
same,serum Cmin median,[3]; [6],68.3 ng/mL
same,serum Cmin mean,[3]; [7],101 ng/mL
same,serum Cmin median,[3]; [7],90.9 ng/mL
same,serum Cmin mean,[3]; [8],62.1 ng/mL
same,serum Cmin median,[3]; [8],56.6 ng/mL
same,serum Cmin mean,[3]; [9],100 ng/mL
same,serum Cmin median,[3]; [9],78 ng/mL
same,serum Cmin mean,[3]; [10],77.3 ng/mL
same,serum Cmin median,[3]; [10],70.2 ng/mL
same,serum Cmin mean,"[3]; standard dose, PPI: no",93.1 ng/mL
same,serum Cmin median,"[3]; standard dose, PPI: no",78 ng/mL
same,serum Cmin mean,"[3]; standard dose, PPI: yes",53.7 ng/mL
same,serum Cmin median,"[3]; standard dose, PPI: yes",53.7 ng/mL
same,serum Cmin mean,[3]; [11],92.7 ng/mL
same,serum Cmin median,[3]; [11],77.6 ng/mL
same,serum Cmin mean,[3]; [12],66.2 ng/mL
same,serum Cmin median,[3]; [12],55.6 ng/mL
same,serum Cmin mean,[3]; [13],89.4 ng/mL
same,serum Cmin median,[3]; [13],78 ng/mL
same,serum Cmin mean,[3]; [14],86.3 ng/mL
same,serum Cmin median,[3]; [14],76.6 ng/mL
same,serum Cmin mean,"[3]; standard dose, sex female",86 ng/mL
same,serum Cmin median,"[3]; standard dose, sex female",68.3 ng/mL
same,serum Cmin mean,"[3]; standard dose, sex male",77.3 ng/mL
same,serum Cmin median,"[3]; standard dose, sex male",72.9 ng/mL
